Key:
barnyardgrass [1] = assay: Test A pre-/postemergence herbicide test; format: in vivo, Echinochloa crus-galli
Procedure, shortened: (§1)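 Visual injury rating on a 0–100 scale (0 no effect, 100 complete control) versus untreated controls, about ten days after treatment in greenhouse. Pre: directed soil spray onto seeded sandy loam. Post: spray to runoff on plants 2–10 cm tall at one- to two-leaf stage.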

large crabgrass [2] = assay: Test A pre-/postemergence herbicide test; format: in vivo, Digitaria sanguinalis
Procedure, shortened: as §1

giant foxtail [3] = assay: Test A pre-/postemergence herbicide test; format: in vivo, Setaria faberi
Procedure, shortened: as §1

morningglory [4] = assay: Test A pre-/postemergence herbicide test; format: in vivo, Ipomoea spp.
Procedure, shortened: as §1

redroot pigweed = assay: Test A pre-/postemergence herbicide test; format: in vivo, Amaranthus retroflexus
Procedure, shortened: as §1

velvetleaf [5] = assay: Test A pre-/postemergence herbicide test; format: in vivo, Abutilon theophrasti
Procedure, shortened: as §1

barnyardgrass [6] = assay: Test B pre-/postemergence herbicide test; format: in vivo, Echinochloa crus-galli; conditions: for Barnyardgrass plant response rating: postemergence
Procedure, shortened: (§2)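 Visual rating, 0 (no effect) to 100 (complete control), versus untreated controls after 13–15 d in greenhouse. Pre- and postemergence applications (postemergence plants 2–18 cm, 1–4 leaves); flooded paddy arm at 2-leaf stage. Compounds in non-phytotoxic solvent plus surfactant.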

Surinam grass = assay: Test B pre-/postemergence herbicide test; format: in vivo, Urochloa decumbens; conditions: for Surinam Grass plant response rating: postemergence
Procedure, shortened: (§3)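 Test chemicals in a non-phytotoxic solvent mixture with surfactant were applied preemergence to seeded species and postemergence to plants 2-18 cm tall (1- to 4-leaf stage); rice and barnyardgrass were also tested in a flooded paddy at the 2-leaf stage. Visual rating versus controls after 13-15 days in greenhouse, scale 0 (no effect) to 100 (complete control).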

cocklebur = assay: Test B pre-/postemergence herbicide test; format: in vivo, Xanthium strumarium; conditions: for Cocklebur plant response rating: postemergence
Procedure, shortened: as §2

corn = assay: Test B pre-/postemergence herbicide test; format: in vivo, Zea mays; conditions: for Corn plant response rating: postemergence
Procedure, shortened: as §3

large crabgrass [7] = assay: Test B pre-/postemergence herbicide test; format: in vivo, Digitaria sanguinalis; conditions: for Crabgrass, Large plant response rating: postemergence
Procedure, shortened: as §3

giant foxtail [8] = assay: Test B pre-/postemergence herbicide test; format: in vivo, Setaria faberi; conditions: for Foxtail, Giant plant response rating: postemergence
Procedure, shortened: as §3

lambsquarters = assay: Test B pre-/postemergence herbicide test; format: in vivo, Chenopodium album; conditions: for Lambsquarters plant response rating: postemergence
Procedure, shortened: as §3

morningglory [9] = assay: Test B pre-/postemergence herbicide test; format: in vivo, Ipomoea coccinea; conditions: for Morningglory plant response rating: postemergence
Procedure, shortened: as §2

pigweed = assay: Test B pre-/postemergence herbicide test; format: in vivo, Amaranthus retroflexus; conditions: for Pigweed plant response rating: postemergence
Procedure, shortened: as §3

rice [10] = assay: Test B pre-/postemergence herbicide test; format: in vivo, Oryza sativa; conditions: 0 = no effect, 100 = complete control, preemergence
Procedure, shortened: as §3

velvetleaf [11] = assay: Test B pre-/postemergence herbicide test; format: in vivo, Abutilon theophrasti; conditions: for Velvetleaf plant response rating: postemergence
Procedure, shortened: as §3

blackgrass = assay: Test B postemergence herbicide test; format: in vivo, Alopecurus myosuroides; conditions: postemergence
Procedure, shortened: (§4)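 Visual ratings, 0 (no effect) to 100 (complete control), made versus controls after 13–15 d greenhouse. Paddy plants treated at 2-leaf stage; postemergence plants at 1- to 4-leaf stage, 2–18 cm tall.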

wheat = assay: Test B postemergence herbicide test; format: in vivo, Triticum aestivum; set-up: key to Wheat plant response rating: 0 = no effect, 100 = complete control; conditions: postemergence
Procedure, shortened: (§5)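 Plants grow to 1- to 4-leaf stage (2–18 cm) for postemergence spraying, or to 2-leaf stage for the paddy test. Formulated compound is applied. Greenhouse holding lasts 13–15 days. Response is scored visually relative to controls, 0 no effect to 100 complete control; a dash means no result.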

wild oat = assay: Test B postemergence herbicide test; format: in vivo, Avena fatua; conditions: postemergence
Procedure, shortened: as §5

rice [12] = assay: Test B flooded paddy test; format: in vivo, Oryza sativa; conditions: 1000 g ai/ha, scale 0 to 100 (0 no effect, 100 complete control)
Procedure, shortened: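 Paddy species grown to the 2-leaf stage under flooding; blackgrass sprayed postemergence at 2–18 cm (1- to 4-leaf stage). Plants kept in a greenhouse for 13 to 15 days, then visually rated against controls on 0 (no effect) to 100 (complete control).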

[13] = system: small flower umbrella sedge; assay: Test B flooded paddy test; format: in vivo, Cyperus difformis; conditions: 1000 g ai/ha, scale 0 to 100 (0 no effect, 100 complete control)
Procedure, shortened: as §4

ducksalad = assay: Test B flooded paddy test; format: in vivo, Heteranthera limosa; conditions: 1000 g ai/ha, scale 0 to 100 (0 no effect, 100 complete control)
Procedure, shortened: as §4

barnyardgrass [14] = assay: Test B flooded paddy test; format: in vivo, Echinochloa crus-galli; conditions: 1000 g ai/ha, scale 0 to 100 (0 no effect, 100 complete control)
Procedure, shortened: as §4

[15] = Postemergence, 500 g ai/ha, 0 to 100 scale, 0 no effect, 100 complete control
[16] = Postemergence, 2000 g ai/ha, 0 to 100 scale, 0 no effect, 100 complete control
[17] = Preemergence, 2000 g ai/ha, visual rating, 0 to 100 scale (0 no effect, 100 complete control)
[18] = preemergence, 500 g ai/ha, visual injury, 0 to 100 scale (0 no effect, 100 complete control)
[19] = 125 g ai/ha, 0 = no effect, 100 = complete control, preemergence
[20] = 500 g ai/ha, visual rating, 0 = no effect, 100 = complete control, preemergence
[21] = 125 g ai/ha, visual rating, scale 0 (no effect) to 100 (complete control)
[22] = 500 g ai/ha, scale 0 to 100, 0 is no effect, 100 is complete control

## CCN(C)C(=O)c1ccc(F)c(NC(=O)c2cc(C(C)(C)C)nn2CC)n1 [Compound 280]
Barnyardgrass [1]; [15]
  Barnyardgrass plant response rating: 0
Barnyardgrass [1]; [16]
  Plant response rating, Barnyardgrass: 25
Barnyardgrass [1]; [17]
  Barnyardgrass plant response rating: 45
Barnyardgrass [1]; [18]
  Barnyardgrass plant response rating: 0
Large crabgrass [2]; [15]
  Crabgrass, Large plant response rating: 5
Large crabgrass [2]; [16]
  Plant response rating, Crabgrass, Large: 0
Large crabgrass [2]; [17]
  Crabgrass, Large plant response rating: 25
Large crabgrass [2]; [18]
  Crabgrass, Large plant response rating: 0
Giant foxtail [3]; [15]
  Foxtail, Giant plant response rating: 0
Giant foxtail [3]; [16]
  Plant response rating, Foxtail, Giant: 0
Giant foxtail [3]; [17]
  Foxtail, Giant plant response rating: 45
Giant foxtail [3]; [18]
  Foxtail, Giant plant response rating: 5
Morningglory [4]; [15]
  Morningglory plant response rating: 0
Morningglory [4]; [16]
  Plant response rating, Morningglory: 10
Morningglory [4]; [17]
  Morningglory plant response rating: 15
Morningglory [4]; [18]
  Morningglory plant response rating: 0
Redroot pigweed; [15]
  Pigweed plant response rating: 55
Redroot pigweed; [16]
  Plant response rating, Pigweed: 70
Redroot pigweed; [17]
  Pigweed plant response rating: 90
Redroot pigweed; [18]
  Pigweed plant response rating: 15
Velvetleaf [5]; [15]
  Velvetleaf plant response rating: 20
Velvetleaf [5]; [16]
  Plant response rating, Velvetleaf: 30
Velvetleaf [5]; [17]
  Velvetleaf plant response rating: 30
Velvetleaf [5]; [18]
  Velvetleaf plant response rating: 0
Barnyardgrass [6]; [19]
  Barnyardgrass plant response rating (0 to 100 scale): 0
Barnyardgrass [6]; [20]
  Plant response rating, Barnyardgrass: 10
Barnyardgrass [6]; [21]
  Barnyardgrass plant response rating: 0
Barnyardgrass [6]; [22]
  Barnyardgrass plant response rating: 0
Surinam grass; [19]
  Surinam Grass plant response rating (0 to 100 scale): 0
Surinam grass; [20]
  Plant response rating, Surinam Grass: 10
Surinam grass; [21]
  Surinam Grass plant response rating: 0
Surinam grass; [22]
  Surinam Grass plant response rating: 10
cocklebur; [19]
  Cocklebur plant response rating (0 to 100 scale): 0
cocklebur; [20]
  Plant response rating, Cocklebur: 0
cocklebur; [21]
  Cocklebur plant response rating: 0
cocklebur; [22]
  Cocklebur plant response rating: 30
corn; [19]
  Corn plant response rating (0 to 100 scale): 0
corn; [20]
  Plant response rating, Corn: 0
corn; [21]
  Corn plant response rating: 0
corn; [22]
  Corn plant response rating: 10
Large crabgrass [7]; [19]
  Crabgrass, Large plant response rating (0 to 100 scale): 0
Large crabgrass [7]; [20]
  Plant response rating, Crabgrass, Large: 10
Large crabgrass [7]; [21]
  Crabgrass, Large plant response rating: 0
Large crabgrass [7]; [22]
  Crabgrass, Large plant response rating: 0
Giant foxtail [8]; [19]
  Foxtail, Giant plant response rating (0 to 100 scale): 0
Giant foxtail [8]; [20]
  Plant response rating, Foxtail, Giant: 10
Giant foxtail [8]; [21]
  Foxtail, Giant plant response rating: 0
Giant foxtail [8]; [22]
  Foxtail, Giant plant response rating: 0
lambsquarters; [20]
  Plant response rating, Lambsquarters: 80
lambsquarters; [21]
  Lambsquarters plant response rating: 10
lambsquarters; [22]
  Lambsquarters plant response rating: 20
Morningglory [9]; [19]
  Morningglory plant response rating (0 to 100 scale): 0
Morningglory [9]; [20]
  Plant response rating, Morningglory: 0
Morningglory [9]; [21]
  Morningglory plant response rating: 0
Morningglory [9]; [22]
  Morningglory plant response rating: 10
pigweed; [19]
  Pigweed plant response rating (0 to 100 scale): 70
pigweed; [20]
  Plant response rating, Pigweed: 100
pigweed; [21]
  Pigweed plant response rating: 10
pigweed; [22]
  Pigweed plant response rating: 20
Rice [10]; 125 g ai/ha
  Rice plant response rating (0 to 100 scale): 0
Rice [10]; 500 g ai/ha, visual rating
  Plant response rating, Rice: 10
Velvetleaf [11]; [19]
  Velvetleaf plant response rating (0 to 100 scale): 10
Velvetleaf [11]; [20]
  Plant response rating, Velvetleaf: 20
Velvetleaf [11]; [21]
  Velvetleaf plant response rating: 10
Velvetleaf [11]; [22]
  Velvetleaf plant response rating: 20
blackgrass; [21]
  Blackgrass plant response rating: 20
blackgrass; [22]
  Blackgrass plant response rating: 20
wheat; [21]
  Wheat plant response rating: 20
wheat; [22]
  Wheat plant response rating: 30
Wild oat; [21]
  Oat, Wild plant response rating: 10
Wild oat; [22]
  Oat, Wild plant response rating: 20
Rice [12]
  Rice plant response rating: 0
[13]
  Sedge, Umbrella plant response rating: 30
ducksalad
  Ducksalad plant response rating: 20
Barnyardgrass [14]
  Barnyardgrass plant response rating: 0

Reference: patent US20060069132A1, “Azolecarboxamide herbicides” (priority 2004, published 2006)
